Data published in patent US12440528B2, “Methods of treating ovarian cancer with hemp extract” (Ecofibre USA Inc., priority 2021, dated 2025).

What was measured:
[1] = system: patient derived organoids (PD3D Cell Culture); test: Calculated IC50 in PD3D cell culture of the patient derived organoids; assay type: cell-based, human
[2] = cells without a printed unit; cited from earlier work

CCCCCOC(=O)Nc1nc(=O)n([C@@H]2O[C@H](C)[C@@H](O)[C@H]2O)cc1F [Capecitabine (5-FU), Capecitabine]
Calculated IC50 PD3D Cell Culture [1]: Not Reached
Cmax [2]: 2220 nM
